Laboratory results from patent US20020197219A1, “Composition containing a peptide and a pigment and the use thereof in darkening the skin” (priority 2001, published 2002).

Legend:
[1] = tested on: keratinocyte-melanocyte co-cultures (Human HaCaT keratinocytes, human primary melanocytes); experiment: Induced pigmentation in keratinocyte-melanocyte co-cultures, DOPA staining and computerized image analysis; assay type: cell-based; details: three daily treatments; for Mean area: DOPA stain, relative pigmented area; for % increase: versus control
Experimental: The peptide Peptide 1 and various pigments were tested, alone or in combination, with keratinocyte-melanocyte cultures for their effect on cell pigmentation, using DOPA staining and computerized image analysis. The pigments that were tested were copper chloride from Sigma (St. Louis, Mo.) and the water-soluble melanin derivative Melasyn-100™ from San-mar laboratories, Inc. (Elmsford, N.Y.). The pigments were tested at concentrations ranging from 0.0001% (W/V) to 0.1% (W/V) and peptides were tested at 50 μM.
The assay was conducted in the following manner. Human HaCaT keratinocytes (Boukamp P., et al., J Cell Biol 106, 3, 761-771 (1988)) were maintained in Dulbecco's Modified Eagle's Medium (DMEM) containing 10% fetal bovine serum (FBS), 4.5 mg/ml glucose, 2 mM L-glutamine, 50 U/ml penicillin and 50 μg/ml streptomycin (Life Technologies, Gaithersburg, Md.). Cells were maintained at <80% confluency in 5% CO2 (v/v) and were used in experimental procedures up to culture passage 15. Human primary melanocytes (Clonetics, San Diego, Calif. or Cascade Biologics, Portland, Oreg.) were maintained according to manufacturer's instructions. To establish keratinocyte-melanocyte co-cultures, 6×10^4 melanocytes were plated in each well of a 24 well plate and maintained according to manufacturer's instructions.
Melanocytes were rinsed three times with melanocyte growth media without PMA and keratinocytes (6×10^4) were plated to establish the co-cultures in this media. Co-cultures were treated for three days with test peptides and pigments, and assayed for cell viability and pigment level on the forth day. Cell viability was assayed using alamarBlue™ (Acumed International, West Lake, Ohio) following manufacturer's instructions. No change in viability was observed following three daily treatments with all tested material. All in vitro experiments were performed in triplicates, and were repeated at least three times.
Following three daily treatments, the co-cultures were briefly fixed (10% buffered formalin from Fisher Scientific, 15 minutes), washed three times with Phosphate-buffered saline (PBS, from Life Technologies) and stained with L-3,4-Dihydroxyphenylalanine (DOPA, from Sigma, St. Louis, Mo.) 0.1% in PBS, for 5 hours at 37° C., followed by two PBS washes and formalin (10%, overnight) fixation. DOPA is a substrate for tyrosinase, therefore an increase in staining represents increased tyrosinase activity and pigment production. DOPA-stained monolayers were used for image analysis. All images were obtained and analyzed with Image Pro Plus 3.0 software (Media Cybernetics, Silver Spring, Md.). Parameters measured were surface area of stained material within melanocyte and keratinocytes and the total surface area of the cells in the culture, and the relative pigmented area was calculated. A value of 100% was assigned to untreated controls, and values of treatment groups were normalized to their relevant controls. In all experiments there was no difference between PBS-treated cells and untreated controls. Data are presented with standard deviation (SigmaPlot® 5.0, SPSS Science, Chicago, Ill.).
Forskolin (Sigma, St. Louis, Mo.), a known inducer of pigmentation, served as a positive control and a reference point. Forskolin was administered at 1% (W/V).

[2] = tested on: Dark skinned Yucatan microswine; experiment: Induced pigmentation in vivo, F&M-stained skin sections of topically treated swine; set-up: key: −1: Slight lightening; 0: No change; 1: Minimal increase in pigment deposition; 2: Increased pigment deposition; 3: Strong increase in pigment deposition, some increase in caps; 4: Strong increase in pigment deposition, strong increase in caps; details: topical, twice a day, five days/week, eight or nine weeks; average of all sites of responsive swine; positive controls 1% (W/V), peptides 250 or 500 μM, pigments 1% or 5% (W/V)
Experimental: Compositions of the present invention were tested for their ability to induce in vivo pigmentation in skin cells in the following experiment. Dark skinned Yucatan microswine (Charles River, Portland, Me.) were housed in appropriately sized cages in an environmentally controlled room with a 12-hour light-12-hour dark photoperiod and supplied with food and water ad libitum. Animal care was based on the “Guide for the Care and Use of Laboratory Animals”, NIH Publication No. 85-23. Twenty μl of test peptides were applied topically, twice a day, five days/week, for eight or nine weeks, on the dorsum of the swine. Treatments of individual swine were always arranged in a head to tail order on one side, and in a tail to head order on the other side of the animal. Biopsies were taken using standard techniques.
Sections from the skin biopsies were stained with Hematoxylin and Eosin (H&E), or with Fontana-Mason (F&M), using standard procedures (Sheenan DC, Hrapckak BB, eds., Theory and Practice of Histo-technology. p. 223, 277, The C. V. Mosby Co., St. Louis (1980)). F&M staining identifies silver nitrate reducing molecules. In skin, this non-specific stain identifies primarily melanin. At least three sections per biopsy were processed. […]
F&M-stained histological skin sections were evaluated for the change in pigment deposition within the treated site. […]

Compound | Mean area ([1]; 0.001% (W/V)) | % increase ([1]; 0.001% (W/V)) [%] | Mean area ([1]; 0.1% (W/V)) | % increase ([1]; 0.1% (W/V)) [%] | Score (change in pigment deposition) [2] | Mean area ([1]; 50 μM) | % increase ([1]; 50 μM) [%]
[Cl][Cu][Cl] [CuCl2, copper chloride] | 0.173 | 120 | 0.246 | 212 |  |  | 
C=C[C@@]1(C)CC(=O)[C@]2(O)[C@@]3(C)[C@@H](O)CCC(C)(C)[C@@H]3[C@H](O)[C@H](OC(C)=O)[C@@]2(C)O1 [Forskolin] |  |  |  |  | 1 |  | 
H2-Val-Gly-Val-Ala-Pro-Gly-NH2 (H-VGVAPG-NH2) [Peptide 1] |  |  |  |  | 1 | 0.131 | 66.6
